According to paper PMC8803441, “Identification of 20(S)-Ginsenoside Rh2 as a Potential EGFR Tyrosine Kinase Inhibitor” (Oxidative Medicine and Cellular Longevity, 2022):

Target: T1, Epidermal growth factor receptor (EGFR) kinase (Homo sapiens, UniProt P00533)
T1 construct: EGFR protein (GST-tagged)
Assay: HTRF KinEASE-TK kinase assay with GST-tagged EGFR
Format: biochemical

T1 sequence (P00533 25-1210): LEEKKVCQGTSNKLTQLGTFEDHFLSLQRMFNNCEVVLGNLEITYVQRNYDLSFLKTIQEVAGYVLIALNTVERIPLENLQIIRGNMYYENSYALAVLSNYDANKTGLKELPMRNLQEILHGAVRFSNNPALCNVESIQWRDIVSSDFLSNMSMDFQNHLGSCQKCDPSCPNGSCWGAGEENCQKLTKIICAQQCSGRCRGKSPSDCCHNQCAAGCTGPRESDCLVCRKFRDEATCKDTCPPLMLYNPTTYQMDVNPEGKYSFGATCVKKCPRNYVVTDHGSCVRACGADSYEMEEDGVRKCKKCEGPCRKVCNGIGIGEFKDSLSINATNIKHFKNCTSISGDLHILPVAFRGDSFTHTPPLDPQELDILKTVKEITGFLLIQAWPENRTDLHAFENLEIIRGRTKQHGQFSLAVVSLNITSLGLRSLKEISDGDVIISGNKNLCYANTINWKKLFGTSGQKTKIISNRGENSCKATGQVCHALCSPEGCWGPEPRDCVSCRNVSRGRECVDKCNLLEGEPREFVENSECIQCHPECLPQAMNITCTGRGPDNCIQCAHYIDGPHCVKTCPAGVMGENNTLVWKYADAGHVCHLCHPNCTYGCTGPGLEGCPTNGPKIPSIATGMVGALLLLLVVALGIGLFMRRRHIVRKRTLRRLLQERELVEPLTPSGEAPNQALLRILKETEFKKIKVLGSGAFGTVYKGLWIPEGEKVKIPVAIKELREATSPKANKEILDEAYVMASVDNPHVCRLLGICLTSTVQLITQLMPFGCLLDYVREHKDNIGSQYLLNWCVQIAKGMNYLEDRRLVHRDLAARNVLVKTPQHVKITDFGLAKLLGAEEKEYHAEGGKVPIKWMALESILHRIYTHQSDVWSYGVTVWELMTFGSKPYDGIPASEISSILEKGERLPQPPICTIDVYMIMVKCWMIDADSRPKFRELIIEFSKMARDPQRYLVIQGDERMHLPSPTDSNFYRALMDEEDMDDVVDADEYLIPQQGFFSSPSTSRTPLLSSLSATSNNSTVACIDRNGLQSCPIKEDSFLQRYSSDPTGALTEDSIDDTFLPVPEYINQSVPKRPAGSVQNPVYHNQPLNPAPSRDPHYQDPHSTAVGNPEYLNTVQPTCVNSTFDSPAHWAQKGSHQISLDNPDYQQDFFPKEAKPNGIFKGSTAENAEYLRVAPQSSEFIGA

`CC(C)=CCC[C@](C)(O)[C@H]1CC[C@]2(C)[C@@H]1[C@H](O)C[C@@H]1[C@@]3(C)CC[C@H](O[C@@H]4O[C@H](CO)[C@@H](O)[C@H](O)[C@H]4O)C(C)(C)[C@@H]3CC[C@]12C` [20(S)-ginsenoside Rh2] showed an IC50 of 2780 ± 160 nM.
